Data: US20230278972A1, “SUBSTITUTED HALOALKYL SULFONANILIDE HERBICIDES” (FMC Corporation, priority 2020, published 2023)

Assays:
Format in all cases: in vivo
[1] = test system: pigweed (Amaranthus retroflexus); experiment: Test A postemergence, pigweed; details: Postemergence, 0 to 100 scale (0 no effect, 100 complete control)
Outline: (§1)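 Pots: loam soil/sand blend. Pre: directed soil spray at planting. Post: plants 2–10 cm, 1–2 leaf stage. Formulation: non-phytotoxic solvent + surfactant.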

[2] = test system: pigweed (Amaranthus retroflexus); experiment: Test A preemergence, pigweed; details: for Pigweed plant response rating: visual injury on 0 to 100 scale (0 no effect, 100 complete control), approximately 10 days; for Plant response rating, Pigweed: 0 to 100 scale (0 no effect, 100 complete control)
Outline: (§2)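 Seeds are sown in loam mixed with sand and sprayed on the soil surface right after planting for the preemergence test. Postemergence pots are sprayed once seedlings reach 2 to 10 cm at the one- to two-leaf stage. The same surfactant-containing, non-phytotoxic solvent formulation serves both.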

[3] = test system: Ryegrass, Italian (Italian ryegrass, Lolium multiflorum); experiment: Test A preemergence, Ryegrass, Italian; details: Preemergence; for Ryegrass, Italian plant response rating: visual injury on 0 to 100 scale (0 no effect, 100 complete control), approximately 10 days; for Plant response rating, Ryegrass, Italian: 0 to 100 scale (0 no effect, 100 complete control)
Outline: as §1

[4] = test system: wheat (Triticum aestivum); experiment: Test A postemergence, wheat; details: Postemergence, 0 to 100 scale (0 no effect, 100 complete control)
Outline: as §2

[5] = test system: galium (catchweed bedstraw, Galium aparine); experiment: Test A postemergence, galium; details: Postemergence, 0 to 100 scale (0 no effect, 100 complete control)
Outline: as §2

kochia (Bassia scoparia) [6] = experiment: Test A postemergence, kochia; details: Postemergence, 0 to 100 scale (0 no effect, 100 complete control)
Outline: as §1

[7] = test system: Ryegrass, Italian (Italian ryegrass, Lolium multiflorum); experiment: Test A postemergence, Ryegrass, Italian; details: Postemergence, 0 to 100 scale (0 no effect, 100 complete control)
Outline: as §1

[8] = test system: Foxtail, Giant (giant foxtail, Setaria faberi); experiment: Test A postemergence, Foxtail, Giant; details: Postemergence, 0 to 100 scale (0 no effect, 100 complete control)
Outline: as §1

kochia (Bassia scoparia) [9] = experiment: Test A preemergence, kochia; details: Preemergence; for Kochia plant response rating: visual injury on 0 to 100 scale (0 no effect, 100 complete control), approximately 10 days; for Plant response rating, Kochia: 0 to 100 scale (0 no effect, 100 complete control)
Outline: as §1

corn (Zea mays) = experiment: Test A postemergence, corn; details: Postemergence, 0 to 100 scale (0 no effect, 100 complete control)
Outline: as §1

[10] = test system: blackgrass (Alopecurus myosuroides); experiment: Test A postemergence, blackgrass; details: Postemergence, 0 to 100 scale (0 no effect, 100 complete control)
Outline: as §1

[11] = test system: barnyardgrass (Echinochloa crus-galli); experiment: Test A preemergence, barnyardgrass; details: Preemergence; for Barnyardgrass plant response rating: visual injury on 0 to 100 scale (0 no effect, 100 complete control), approximately 10 days; for Plant response rating, Barnyardgrass: 0 to 100 scale (0 no effect, 100 complete control)
Outline: as §1

[12] = test system: Foxtail, Giant (giant foxtail, Setaria faberi); experiment: Test A preemergence, Foxtail, Giant; details: Preemergence; for Foxtail, Giant plant response rating: visual injury on 0 to 100 scale (0 no effect, 100 complete control), approximately 10 days; for Plant response rating, Foxtail, Giant: 0 to 100 scale (0 no effect, 100 complete control)
Outline: as §1

[13] = test system: barnyardgrass (Echinochloa crus-galli); experiment: Test A postemergence, barnyardgrass; details: Postemergence, 0 to 100 scale (0 no effect, 100 complete control)
Outline: as §2

[14] = test system: ragweed (common ragweed, Ambrosia artemisiifolia); experiment: Test A postemergence, ragweed; details: Postemergence, 0 to 100 scale (0 no effect, 100 complete control)
Outline: as §1

[15] = test system: ragweed (common ragweed, Ambrosia artemisiifolia); experiment: Test A preemergence, ragweed; details: Preemergence; for Ragweed plant response rating: visual injury on 0 to 100 scale (0 no effect, 100 complete control), approximately 10 days; for Plant response rating, Ragweed: 0 to 100 scale (0 no effect, 100 complete control)
Outline: as §1

[16] = 125 g ai/ha, visual injury approx. 10 days
[17] = 500 g ai/ha, visual injury, approx. 10 days
[18] = 500 g ai/ha, visual injury approx. 10 days
[19] = 125 g ai/ha, visual injury, approx. 10 days
[20] = 1000 g ai/ha, visual injury, approx. 10 days
[21] = 500 g ai/ha, visual injury vs untreated controls after approx. 10 days

SMILES: Cc1cc(C)c(N(S(C)(=O)=O)S(=O)(=O)C(F)(F)F)cc1-c1cc(C(C)C)nn(C)c1=O [Compound 39]
- Plant response rating, Pigweed [1, 16]: 0
- Plant response rating, Pigweed [1, 17]: 0
- Pigweed plant response rating ([2]; 125 g ai/ha): 0
- Plant response rating, Pigweed ([2]; 500 g ai/ha): 0
- Ryegrass, Italian plant response rating ([3]; 125 g ai/ha): 30
- Plant response rating, Ryegrass, Italian ([3]; 500 g ai/ha): 70
- Plant response rating, Wheat [4, 16]: 60
- Plant response rating, Wheat [4, 17]: 60
- Plant response rating, Galium [5, 16]: 0
- Plant response rating, Galium [5, 17]: 0
- Plant response rating, Kochia (kochia (Bassia scoparia) [6]; [16]): 0
- Plant response rating, Kochia (kochia (Bassia scoparia) [6]; [17]): 0
- Plant response rating, Ryegrass, Italian [7, 16]: 0
- Plant response rating, Ryegrass, Italian [7, 17]: 40
- Plant response rating, Foxtail, Giant [8, 16]: 0
- Plant response rating, Foxtail, Giant [8, 17]: 0
- Kochia plant response rating (kochia (Bassia scoparia) [9]; 125 g ai/ha): 0
- Plant response rating, Kochia (kochia (Bassia scoparia) [9]; 500 g ai/ha): 0
- Plant response rating, Corn (corn (Zea mays); [16]): 0
- Plant response rating, Corn (corn (Zea mays); [17]): 0
- Plant response rating, Blackgrass [10, 16]: 0
- Plant response rating, Blackgrass [10, 17]: 0
- Barnyardgrass plant response rating ([11]; 125 g ai/ha): 40
- Plant response rating, Barnyardgrass ([11]; 500 g ai/ha): 90
- Foxtail, Giant plant response rating ([12]; 125 g ai/ha): 10
- Plant response rating, Foxtail, Giant ([12]; 500 g ai/ha): 90
- Plant response rating, Barnyardgrass [13, 16]: 0
- Plant response rating, Barnyardgrass [13, 17]: 30
- Plant response rating, Ragweed [14, 16]: 20
- Plant response rating, Ragweed [14, 17]: 70
- Ragweed plant response rating ([15]; 125 g ai/ha): 0
- Plant response rating, Ragweed ([15]; 500 g ai/ha): 30

SMILES: Cc1cc(C)c(N(S(=O)(=O)C(F)(F)F)S(=O)(=O)C(F)(F)F)cc1C(=O)N1CCC(Cl)CC1 [Compound 243]
- Plant response rating, Pigweed ([1]; 125 g ai/ha): 90
- Plant response rating, Pigweed [1, 18]: 100
- Plant response rating, Pigweed [2, 19]: 100
- Pigweed plant response rating ([2]; 500 g ai/ha): 100
- Plant response rating, Ryegrass, Italian [3, 19]: 90
- Ryegrass, Italian plant response rating ([3]; 500 g ai/ha): 100
- Plant response rating, Wheat ([4]; 125 g ai/ha): 0
- Plant response rating, Wheat [4, 18]: 30
- Plant response rating, Galium ([5]; 125 g ai/ha): 70
- Plant response rating, Galium [5, 18]: 90
- Plant response rating, Kochia (kochia (Bassia scoparia) [6]; 125 g ai/ha): 10
- Plant response rating, Kochia (kochia (Bassia scoparia) [6]; [18]): 70
- Plant response rating, Ryegrass, Italian ([7]; 125 g ai/ha): 0
- Plant response rating, Ryegrass, Italian [7, 18]: 30
- Plant response rating, Foxtail, Giant ([8]; 125 g ai/ha): 0
- Plant response rating, Foxtail, Giant [8, 18]: 40
- Plant response rating, Kochia (kochia (Bassia scoparia) [9]; [19]): 20
- Kochia plant response rating (kochia (Bassia scoparia) [9]; 500 g ai/ha): 80
- Plant response rating, Corn (corn (Zea mays); 125 g ai/ha): 0
- Plant response rating, Corn (corn (Zea mays); [18]): 0
- Plant response rating, Blackgrass ([10]; 125 g ai/ha): 0
- Plant response rating, Blackgrass [10, 18]: 10
- Plant response rating, Barnyardgrass [11, 19]: 80
- Barnyardgrass plant response rating ([11]; 500 g ai/ha): 90
- Plant response rating, Foxtail, Giant [12, 19]: 100
- Foxtail, Giant plant response rating ([12]; 500 g ai/ha): 100
- Plant response rating, Barnyardgrass ([13]; 125 g ai/ha): 50
- Plant response rating, Barnyardgrass [13, 18]: 70
- Plant response rating, Ragweed ([14]; 125 g ai/ha): 30
- Plant response rating, Ragweed [14, 18]: 90
- Plant response rating, Ragweed [15, 19]: 70
- Ragweed plant response rating ([15]; 500 g ai/ha): 80

SMILES: Cc1ccc(C(=O)N2CCC(C)CC2)cc1NS(=O)(=O)C(F)(F)F [Compound 7]
- Plant response rating, Pigweed [1, 20]: 20
- Plant response rating, Pigweed ([2]; 1000 g ai/ha): 80
- Plant response rating, Ryegrass, Italian ([3]; 1000 g ai/ha): 60
- Plant response rating, Wheat [4, 20]: 0
- Plant response rating, Galium [5, 20]: 40
- Plant response rating, Kochia (kochia (Bassia scoparia) [6]; [20]): 40
- Plant response rating, Ryegrass, Italian [7, 20]: 90
- Plant response rating, Foxtail, Giant [8, 20]: 0
- Plant response rating, Kochia (kochia (Bassia scoparia) [9]; 1000 g ai/ha): 30
- Plant response rating, Corn (corn (Zea mays); [20]): 0
- Plant response rating, Blackgrass [10, 20]: 20
- Plant response rating, Barnyardgrass ([11]; 1000 g ai/ha): 80
- Plant response rating, Foxtail, Giant ([12]; 1000 g ai/ha): 90
- Plant response rating, Barnyardgrass [13, 20]: 20
- Plant response rating, Ragweed [14, 20]: 20
- Plant response rating, Ragweed ([15]; 1000 g ai/ha): 80

SMILES: Cc1cc(C#N)c(C(=O)N2CCCCC2)cc1NS(=O)(=O)C(F)(F)F [Compound 126]
- Plant response rating, Pigweed [1, 16]: 70
- Pigweed plant response rating [1, 21]: 90
- Pigweed plant response rating ([2]; 125 g ai/ha): 70
- Plant response rating, Pigweed ([2]; 500 g ai/ha): 100
- Ryegrass, Italian plant response rating ([3]; 125 g ai/ha): 0
- Plant response rating, Ryegrass, Italian ([3]; 500 g ai/ha): 40
- Plant response rating, Wheat [4, 16]: 0
- Wheat plant response rating [4, 21]: 0
- Plant response rating, Galium [5, 16]: 80
- Galium plant response rating [5, 21]: 90
- Plant response rating, Kochia (kochia (Bassia scoparia) [6]; [16]): 10
- Kochia plant response rating (kochia (Bassia scoparia) [6]; [21]): 30
- Plant response rating, Ryegrass, Italian [7, 16]: 0
- Ryegrass, Italian plant response rating [7, 21]: 0
- Plant response rating, Foxtail, Giant [8, 16]: 0
- Foxtail, Giant plant response rating [8, 21]: 0
- Kochia plant response rating (kochia (Bassia scoparia) [9]; 125 g ai/ha): 0
- Plant response rating, Kochia (kochia (Bassia scoparia) [9]; 500 g ai/ha): 30
- Plant response rating, Corn (corn (Zea mays); [16]): 0
- Corn plant response rating (corn (Zea mays); [21]): 20
- Plant response rating, Blackgrass [10, 16]: 20
- Blackgrass plant response rating [10, 21]: 30
- Barnyardgrass plant response rating ([11]; 125 g ai/ha): 0
- Plant response rating, Barnyardgrass ([11]; 500 g ai/ha): 40
- Foxtail, Giant plant response rating ([12]; 125 g ai/ha): 20
- Plant response rating, Foxtail, Giant ([12]; 500 g ai/ha): 90
- Plant response rating, Barnyardgrass [13, 16]: 0
- Barnyardgrass plant response rating [13, 21]: 0
- Plant response rating, Ragweed [14, 16]: 0
- Ragweed plant response rating [14, 21]: 30
- Ragweed plant response rating ([15]; 125 g ai/ha): 0
- Plant response rating, Ragweed ([15]; 500 g ai/ha): 30
